Measurements taken from patent US6140341A, “Aminoalkyl and acylaminoalkyl ethers, process for their preparation, and their use as bradykinin receptor antagonists” (Hoechst Aktiengesellschaft, priority 1996, dated 2000).

Tests used:
bradykinin B2 receptor = molecular target: T1, bradykinin B2 receptor (Cavia porcellus, UniProt O70526); assay: Affinity for the bradykinin B2 receptor on membrane preparations from guinea pig ileum (3H-bradykinin competition); assay type: binding; details: 3H-bradykinin (0.25 to 0.3 nMol/l), guinea pig ileum membranes, pH 6.8, room temperature, 60 minutes
T1 construct: preparations of membranes from the guinea pig ileum; from tissue; host or cells: guinea pig ileum membranes
T1 sequence (O70526 1-372): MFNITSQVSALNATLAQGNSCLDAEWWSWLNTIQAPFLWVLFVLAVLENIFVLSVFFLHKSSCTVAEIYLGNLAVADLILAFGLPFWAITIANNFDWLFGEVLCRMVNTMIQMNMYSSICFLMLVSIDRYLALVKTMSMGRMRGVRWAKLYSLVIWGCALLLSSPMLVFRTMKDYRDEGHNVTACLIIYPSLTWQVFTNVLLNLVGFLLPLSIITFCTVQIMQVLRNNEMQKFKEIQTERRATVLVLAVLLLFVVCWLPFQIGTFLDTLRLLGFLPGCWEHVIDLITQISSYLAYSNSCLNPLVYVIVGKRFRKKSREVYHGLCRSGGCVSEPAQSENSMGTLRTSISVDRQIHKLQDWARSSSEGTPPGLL
Description: Determination of the affinity of the compounds of the formula (I) for the bradykinin B2 receptor took place on preparations of membranes from the guinea pig ileum (R. B. Innis et al., Proc. Natl. Acad. Sci. USA; […] (1981) 2630) by the following method:
1. Ligand: ^3 H-BRADYKININ (from NEN Du Pont)
25 mM TES (SIGMA, Order No.: T-4152)
1 mM 1,10-phenanthroline (SIGMA; Order No.: P-9375)
25 mM TES (SIGMA; Order No.: T-4152)
0.1% albumin, bovine (SIGMA; Order No.: A-7906)
140 μg/ml bacitracin (SIGMA; Order No.: B-0125)
1 mM dithiothreitol (SIGMA; Order No.: D-0632)
1 μM captopril-1-[(2S)-3-mercapto-2-methylpropionyl]-L-proline
Both buffers are adjusted to pH 6.8 with 5 molar NaOH.
Guinea pig ilea are carefully squeezed out to remove most of the intestinal contents and are cleaned in 0.9% strength NaCl solution.
The pieces of ilea about 2 cm long are transferred into ice-cold TES buffer (about 1 g/10 ml) and homogenized with an Ultraturrax in an ice bath for about 30 sec. The homogenate is then filtered through 3 layers of gauze and the filtrate is centrifuged at 50,000 g for 10 minutes.
The supernatant is discarded, and the pellet is rehomogenized in the same volume of TES buffer and again centrifuged at 50,000 g for 10 minutes. The pellet is rehomogenized in incubation buffer (about 1 g/5 ml) and frozen in 2 ml portions in cryotubes at -70° C.
The protein concentration in the finished membrane suspension is determined by the LOWRY method and should be about 15 μg/100 μl.
All the incubations are carried out in a volume of 200 μl in microtiter plates (96×300 μl) at room temperature for 60 minutes. All mixtures in incubation bufler. 50 μl of the radioligands, 50 μl of the product to be tested and 100 μl of the membrane suspension are successively pipetted into these in the wells of the microtiter plate. […]
a) Saturation experiments (hot saturation): […]
Nonspecific binding: The nonspecific binding must be determined for each concentration of the radioactive ligand. […]

[1] = tested on: bradykinin-induced contraction of the guinea pig ileum; assay: Bradykinin-antagonistic effect on the bradykinin-induced contraction of the isolated guinea pig ileum; details: Cavia porcellus, 10 min, Tyrode solution 37° C., antagonist action time 10 min
Description: Furthermore, to determine the bradykinin-antagonistic effect of the compounds of the formula (I) it is possible to measure their effect on the bradykinin-induced contraction of the guinea pig ileum by the following protocol:
Guinea pigs weighing about 300 g (Morioth strain,--) are sacrificed by a blow to the back of the neck and are exsanguinated. A length of about 20 cm of ileum is dissected out and rinsed with Tyrode solution (Record syringe), thus removing intestinal contents. It is then divided into segments 1.5 cm long. These are fixed in organ baths with a capacity of 10 ml which are filled with Tyrode solution, and are connected to strain gauges (isometric contraction measurement). The initial load is 1 g. The Tyrode solution is heated in a water bath to 37° C., and compressed air is bubbled through.
After an interval of 30 min, the experiment is started. After recording the biological zero line, bradykinin is added to each organ bath in a final concentration of […], and the concentration is recorded. Then, after rinsing with Tyrode solution for 3 min and a resting period of 20 min, bradykinin is again added. The maximum contraction is reached (control). Rinsing and resting period repeated. The bradykinin antagonist is then added (action time 10 min.). […] The experiment is recorded on a pen recorder. […]

Row | Compound | Ki (bradykinin B2 receptor) | IC50 [1]
1 | Cc1ccc2cccc(OCc3c(Cl)ccc(OCCNC(=O)/C=C/c4ccc(N)cc4)c3Cl)c2n1 [Example 2, 8-[3-(2-N-(trans-4-aminocinnamoyl)aminoethoxy)-2,6-dichlorobenzyloxy]-2-methylquinoline] | 20 nM | 
2 | Cc1ccc2cccc(OCc3c(Cl)ccc(OCCN)c3Cl)c2n1 [Example 1, 8-[3-(2-aminoethoxy)-2,6-dichlorobenzyloxy]-2-methylquinoline] |  | 1800 nM
3 | Cc1ccc2cccc(OCc3c(Cl)ccc(OCCNC(=O)/C=C/c4ccccc4)c3Cl)c2n1 [Example 5, 8-[2,6-dichloro-3-(trans-2-N-cinnamoylaminoethoxy)benzyloxy]-2-methylquinoline] | 61 nM | 
4 | COc1ccc(/C=C/C(=O)NCCOc2ccc(Cl)c(COc3cccc4ccc(C)nc34)c2Cl)cc1 [Example 6, 8-[2,6-dichloro-3-(2-N-(trans-4-methoxycinnamoyl)aminoethoxy)benzyloxy]-2-methylquinoline] | 32 nM | 
